Reference: patent US20250333573A1, “METHOD FOR TEXTILE AND POLYESTER DECONSTRUCTION AND UPCYCLING TO BIOPLASTIC IN A HALOPHILE” (Battelle Memorial Institute, priority 2024, published 2025)

Assays:
WT Halomonas elongata = assay: Growth of WT Halomonas elongata on subcritical water products and ethylene glycol (OD600); assay type: cell-based; details: 5 g/L ethylene glycol; minimal salts medium, 60 g/L NaCl
Experimental: This was prepared with minimal salts medium directly and used as a growth substrate for the WT Halomonas elongata strain.
The SCW product contained 4.1 g/L EG, and the final medium preparation contained ˜1.6 g/L EG.

[1] = tested on: Halomonas elongata DSMZ 2581; assay: Growth of Halomonas elongata on lactate and crotonate as the carbon source (OD600); assay type: cell-based; details: 3 g/L crotonic acid alone; MM63 medium, 60 g/L NaCl, pH 8.0
Experimental: FIG. 30B: Growth of Halomonas elongata DSMZ 2581 in MM63 medium containing 3 g/L lactate, 3 g/L crotonate, and mixture of 3 g/L lactate and 3 g/L crotonate as indicated. MM63 medium contained 13.61 g/L KH·PO4, 4.21 g/L KOH, 1.98 (NH4)2SO4, 0.0011 g/L FeSO4—H2O 0.25 g/L MgSO4-7H2O, and 60 g/L NaCl set at pH=8.0. Points represent the average of three replicates and error bars are one standard deviation.
Media was prepared with MM63 minimal salts medium directly and used as a growth substrate for Halomonas elongata strain. MM63 minimal salts medium contains 13.61 g/L KH·PO4, 4.21 g/L KOH, 1.98 (NH4)2SO4, 0.0011 g/L FeSO4—H2O 0.25 g/L MgSO4-7H2O, 60 g/L NaCl. […] Assuming linearity in biomass to substrate loading, and assuming the major carbon source was crotonate and/or lactate, the increased optical density over time would indicate a high conversion of the substrates in the Halomonas strain.
Cell density was measured using a spectrophotometric assay detecting absorbance of each well/cuvette at 600 nm. The measurements were performed using a Thermo Scientific Genesys 150 spectrophotometer. A non-inoculated control was used to subtract background absorbance.

Row | SMILES | final OD600 (WT Halomonas elongata) | final optical density [1]
1 | OCCO [ethylene glycol] | 3.16 | 
2 | C/C=C/C(=O)O [crotonate, crotonic acid] |  | 6.0
